These results are taken from ChEMBL document CHEMBL3407366, “Original 2-(3-alkoxy-1H-pyrazol-1-yl)pyrimidine derivatives as inhibitors of human dihydroorotate dehydrogenase (DHODH)” (J Med Chem, 2015).

Values after ≈ are worked out from the molar mass of the structure shown. Active and inactive are the calls of the source. The calls are words filed in the database; no cut-off is given here.

Chain of Dihydroorotate dehydrogenase (quinone), mitochondrial (Q02127 whole entry): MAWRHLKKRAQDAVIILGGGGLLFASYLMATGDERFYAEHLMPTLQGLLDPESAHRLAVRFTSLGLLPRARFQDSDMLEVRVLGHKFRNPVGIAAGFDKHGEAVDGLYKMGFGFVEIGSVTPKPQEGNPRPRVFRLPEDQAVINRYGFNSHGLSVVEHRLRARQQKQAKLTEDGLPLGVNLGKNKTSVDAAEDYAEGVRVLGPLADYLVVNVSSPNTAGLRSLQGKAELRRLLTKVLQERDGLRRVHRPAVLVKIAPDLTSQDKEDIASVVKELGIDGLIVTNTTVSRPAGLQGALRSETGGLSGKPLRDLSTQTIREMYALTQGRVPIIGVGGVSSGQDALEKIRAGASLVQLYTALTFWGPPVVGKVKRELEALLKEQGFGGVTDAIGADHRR

One data set deals with Measles morbillivirus. Briefly: Antiviral activity against Measles virus expressing firefly luciferase rMV2/Luc infected in human HEK293 cells assessed as bioluminescence level after 6 mins by luminometry. Type of data set: functional.
Details: not given
Take `Cc1c(Cc2ccccc2F)c(OC(C)C)nn1-c1ncc(C2CC2)cn1`: the pMIC50 is on record as 8.9. On the same count and under the same terms, the same measure for `CCc1cnc(-n2nc(OC(C)C)c(Oc3ccccc3F)c2C)nc1`: 8.1; for `CCc1ccc(-n2nc(OC(C)C)c(Cc3ccccc3)c2C)cc1`: 6.2; for `CCc1cnc(-n2nc(OCCOCc3ccccc3)c(Cc3ccccc3)c2C)nc1`: 7.3.

In the case of `CCOc1nn(-c2ncc(CC)cn2)c(C)c1Oc1ccc(C(F)(F)F)cc1`, the pMIC50 came to 5.2. Same read-out and setting: the same measure for `CCc1cnc(-n2nc(OC(C)C)c(Cc3ccccc3)c2C)nc1`: 8.4; for `CCOc1nn(-c2ncc(CC)cn2)c(C)c1Oc1ccccc1Cl`: 6.9; for `CCCc1cnc(-n2nc(OC(C)C)c(Oc3c(F)cccc3F)c2C)nc1`: 8.5. On to `CCc1cnc(-n2nc(OC(C)C)c(Cc3ccccc3F)c2C)nc1`, for which the pMIC50 worked out at 8.8.

Consider `Cc1c(Oc2c(F)cccc2F)c(OC(C)C)nn1-c1ncc(Br)cn1`, for which the pMIC50 came to 7.9.

Regarding `CCCc1cnc(-n2nc(OCC)c(Cc3ccccc3)c2C)nc1`, the pMIC50 was 7.5. On to `CCCc1cnc(-n2nc(OC(C)C)c(Oc3c(F)cccc3F)c2C)nc1O`, for which the pMIC50 stood at 7.2. Same read-out and setting: the same measure for `CCc1cnc(-n2nc(OC(C)C)c(Oc3cc(F)ccc3F)c2C)nc1`: 7.3; for `COc1cnc(-n2nc(OC(C)C)c(Oc3c(F)cccc3F)c2C)nc1`: 7.3; for `C/C(O)=C(\C#N)C(=O)Nc1ccc(C(F)(F)F)cc1` [TERIFLUNOMIDE]: 5.3. Still for that read-out and setting: then `CC(C)Oc1nn(-c2ncc(C3CC3)cn2)c(CN(C)C)c1Cc1ccccc1`, with under 5. For `CCc1cnc(-n2nc(OC(C)C)c(Oc3c(F)cccc3F)c2C)nc1O`, the pMIC50 stood at 7.8. Still for that read-out and setting: the same measure for `Cc1cnc(-n2nc(OC(C)C)c(Oc3c(F)cccc3F)c2C)nc1`: 7.9; for `CCOc1nn(-c2ncc(CC)cn2)c(C)c1C(=O)c1ccccc1`: 6.2.

Take `CCOc1nn(-c2ncc(CC)cn2)c(C)c1Oc1ccccc1C(F)(F)F`: the pMIC50 turned out to be 6.2. On the same count and under the same terms, then `CCOc1nn(-c2ncc(C3CC3)cn2)c(C)c1Cc1ccccc1`, with 7.6; and `Cc1c(Oc2c(F)cccc2F)c(OC(C)C)nn1-c1ncc(F)cn1`, with 6.6. Same read-out and setting: then `CCC(CC)Oc1nn(-c2ncc(C3CC3)cn2)c(C)c1Cc1ccccc1`, with 8.8; and `CCOc1nn(-c2ncc(CC)cn2)c(C)c1Cc1ccccc1`, with 7.7. Still for that read-out and setting: then `CCOc1nn(-c2ncccn2)c(C)c1Cc1ccccc1`, with 5.5; and `CCOc1nn(-c2ncc(CC)cn2)c(C)c1Oc1cccc(Cl)c1Cl`, with 6.8; and `CCc1cnc(-n2nc(OC(C)C)c(Oc3ccc(F)cc3)c2C)nc1`, with 6.5.

Turning to `CCOc1nn(-c2ncc(CC)cn2)c(C)c1Sc1ccccc1`, the pMIC50 was determined as 6.9.

`COCc1c(Cc2ccccc2)c(OC(C)C)nn1-c1ncc(C2CC2)cn1`: the pMIC50 is given as 7.2. `Cc1c(Oc2c(F)cccc2F)c(OC(C)C)nn1-c1ncccn1`: the pMIC50 was determined as 5.6. For `CCc1cnc(-n2nc(OC(C)C)c(Cc3cccc(F)c3)c2C)nc1`, the pMIC50 stood at 8.2. Still for that read-out and setting: the same measure for `CCc1cnc(-n2nc(OC(C)C)c(Oc3ccc(F)cc3F)c2C)nc1`: 7.9. The same measure, in the same setting: the same measure for `Cc1cnc(-n2nc(OC(C)C)c(Oc3c(F)cccc3F)c2C)nc1O`: 6.8; for `CCOc1nn(-c2ncc(C)cn2)c(C)c1Cc1ccccc1`: 7.5; for `CCOc1nn(-c2ncc(CC)cn2)c(C)c1I`: 4.9. As for `CCOc1nn(-c2ncc(CC)cn2)c(C)c1Oc1cccc(C(F)(F)F)c1`, the pMIC50 came to 7.3. The same measure, in the same setting: the same measure for `CCOc1nn(-c2ncc(CC)cn2)c(C)c1Oc1ccccc1F`: 7.2; for `CCc1cnc(-n2nc(OC(C)C)c(Oc3cccc(F)c3)c2C)nc1`: 6.6; for `CCOc1nn(-c2ncc(CC)cn2)c(C)c1Oc1ccccc1`: 6.2. Still for that read-out and setting: then `CCOc1nn(-c2ncc(CC)c(C)n2)c(C)c1Cc1ccccc1`, with 7.4. Same read-out and setting: then `CCOc1nn(-c2ccc(C)cn2)c(C)c1Cc1ccccc1`, with 6.2; and `Cc1c(Cc2ccccc2)c(O)nn1-c1ncc(C2CC2)cn1`, with 5.6.

In the case of `Cc1c(Oc2c(F)cccc2F)c(OC(C)C)nn1-c1nccc(O)n1`, the pMIC50 is under 5. As for `CCc1cnc(-n2nc(CC(C)C)c(Cc3ccccc3)c2C)nc1`, the pMIC50 was found to be 7.5. As for `CCc1cnc(-n2nc(OC(C)C)c(Oc3cccc(F)c3F)c2C)nc1`, the pMIC50 is on record as 7.2. Turning to `Cc1nn(-c2ncc(C3CC3)cn2)c(OC(C)C)c1Cc1ccccc1`, the pMIC50 was found to be 6.8. The same measure, in the same setting: the same measure for `CCOc1nn(-c2ncc(CC)cn2)c(C)c1Oc1cc(Cl)ccc1Cl`: 7.6; for `CCOc1nn(-c2nccc(C)n2)c(C)c1Cc1ccccc1`: 6.1; for `CCc1cnc(-n2nc(OCCO)c(Cc3ccccc3)c2C)nc1`: 6.6. For `CCc1cnc(-n2nc(O)c(Cc3ccccc3)c2C)nc1`, the pMIC50 is recorded as 6.3. Still for that read-out and setting: the same measure for `CCc1cnc(-n2nc(OCCCN(C)C)c(Cc3ccccc3)c2C)nc1`: 6.1; for `CCOc1nn(-c2ncc(CC)cn2)c(C)c1-c1ccccc1`: 5.4.

In the case of `CCOc1nn(-c2ncc(OC)cn2)c(C)c1Cc1ccccc1`, the pMIC50 is reported as 6.2. Same read-out and setting: then `Cc1c(Oc2c(F)cccc2F)c(OC(C)C)nn1-c1ncc(C2CC2)cn1`, with 8.9. Still for that read-out and setting: the same measure for `CCC(C)Oc1nn(-c2ncc(C3CC3)cn2)c(C)c1Cc1ccccc1` (centres undefined): 8.7.

Take `CCN(CC)Cc1c(Cc2ccccc2)c(OC(C)C)nn1-c1ncc(C2CC2)cn1`: the pMIC50 was 5.1. As to `CCOc1nn(-c2ncc(CC)cn2)c(C)c1Oc1ccccc1Br`, the pMIC50 is on record as 6.9. `Cc1c(C(O)c2ccccc2)c(OC(C)C)nn1-c1ncc(C2CC2)cn1` (centres undefined): the pMIC50 came out at 8.8. On the same count and under the same terms, then `CCc1cnc(-n2nc(OC(C)C)c(Cc3ccc(F)cc3)c2C)nc1`, with 7.4; and `CCOc1nn(-c2ncc(CC)cn2)c(C)c1Oc1cc(Cl)cc(Cl)c1`, with 5.9. Same read-out and setting: then `Cc1c(Cc2ccccc2)c(OC(C)C)nn1-c1ncc(C2CC2)cn1`, with 8.2. Still for that read-out and setting: the same measure for `CCCCCc1cnc(-n2nc(OCC)c(Cc3ccccc3)c2C)nc1`: under 5; for `CCOc1nn(-c2ncc(Br)cn2)c(C)c1Cc1ccccc1`: 7. On to `COc1nn(-c2ncc(C3CC3)cn2)c(C)c1Cc1ccccc1`, for which the pMIC50 stood at 7.3. The same measure, in the same setting: then `CCc1cnc(-n2nc(OC(C)C)c(Oc3c(F)cccc3F)c2C)nc1`, with 9.1.

The same data set, now with this note: Measles morbillivirus, 0.1 h.
On to `CCOc1nn(-c2ncccn2)c(C)c1Cc1ccccc1`, for which the MIC50 was found to be 2.72 µM (≈ 0.801 µg/mL). On the same count and under the same terms, then `CCOc1nn(-c2ccc(C)cn2)c(C)c1Cc1ccccc1`, with 0.65 µM (≈ 0.2 µg/mL).

The subject of another data set is HEK293. Briefly: Cytotoxicity against human HEK293 cells assessed as cell viability after 24 hrs by CellTiter-Glo assay. Type of data set: cell-based. The settings on record: hek293, 24 h. A general note: ATP-based viability assays read luminescence as a measure of living cells.
Consider `CCOc1nn(-c2ncccn2)c(C)c1Cc1ccccc1`, for which the Activity entry is “Non-toxic”. Same read-out and setting: then `CCOc1nn(-c2ccc(C)cn2)c(C)c1Cc1ccccc1`, with “Non-toxic”.

For the next data set, the system named is Measles morbillivirus. Briefly: Antiviral activity against measles virus expressing firefly luciferase rMV2/Luc infected in human HEK293 cells assessed as bioluminescence level at 16 to 195 nM after 6 mins by luminometry in presence of uridine. Type of data set: functional, organism-based.
Details: not given
In the case of `CCOc1nn(-c2ncc(CC)cn2)c(C)c1Cc1ccccc1`, the result was inactive.

For another data set, the system named is Measles morbillivirus. Put plainly: Antiviral activity against measles virus expressing firefly luciferase rMV2/Luc infected in human HEK293 cells assessed as bioluminescence level at 16 to 195 nM after 6 mins by luminometry in presence of orotic acid. It counts as functional, organism-based.
Details: not given
On to `CCOc1nn(-c2ncc(CC)cn2)c(C)c1Cc1ccccc1`, for which the result was inactive.

A further data set has as its system Measles morbillivirus. Briefly: Antiviral activity against measles virus expressing firefly luciferase rMV2/Luc infected in human HEK293 cells assessed as bioluminescence level at 16 to 195 nM after 6 mins by luminometry in presence of dihydroorotic acid.
Details: not given
It counts as functional, organism-based.
As for `CCOc1nn(-c2ncc(CC)cn2)c(C)c1Cc1ccccc1`, the outcome was Active.

Another data set has as its target Dihydroorotate dehydrogenase (quinone), mitochondrial (Homo sapiens, UniProt Q02127). Put plainly: Inhibition of His-tagged human DHODH assessed as reduction of DCIP by spectrophotometry.
Details: not given
In the case of `Cc1c(Cc2ccccc2F)c(OC(C)C)nn1-c1ncc(C2CC2)cn1`, the half-maximal inhibitory concentration (IC50) is 12.6 nM.

For `CCOc1nn(-c2ncc(CC)cn2)c(C)c1Oc1ccccc1Br`, the IC50 was 126 nM.

The term IC50 denotes the concentration at which inhibition is half-maximal.
